Some test systems named below: 786-0 renal; A498 renal; ACHN renal; M14 melanoma; SF-539 CNS; SN12C renal; SNB-75 CNS; SR leukemia; SW-620 colon; UACC-62 melanoma.
Holding throughout (test): inhibition of tumour cell growth, NCI panel, 48 h

Where “and” joins values, the source holds several entries; their conditions need not be identical. Equal entries are not always repeated.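 Growth conditions: 96-well plates. Treatment: test compound, 48 hours, 5 concentrations. Analysis: linear interpolation between bracketing concentrations; unreached endpoints set to highest concentration. GI50: concentration for 50% inhibition of growth. TGI: total growth inhibition.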

On to `N[C@@H](Cc1ccc(N(CCCl)CCCl)cc1)C(=O)O`, for which the GI50 with 786-0 renal was 13.3 µM; with A498 renal, 33.2 µM and 49.3 µM; in the assay on ACHN renal, 3.99 µM; with M14 melanoma it was 17.3 µM; in the assay on SF-539 CNS it was 6.03 µM and 4.36 µM; with SN12C renal, 3.73 µM and 9.39 µM. For the same compound, the GI50 was 16.3 µM and 14.4 µM in the assay on SNB-75 CNS; 19.5 µM and 17.2 µM in the assay on SW-620 colon; 8.7 µM and 6.39 µM in the assay on UACC-62 melanoma. Further, the TGI was 48 µM and 72.6 µM in the assay with 786-0 renal; > 100 µM and > 78.2 µM and 177 µM with A498 renal; 21.5 µM and 78.2 µM in the assay with ACHN renal; > 100 µM and 84.2 µM in the assay with M14 melanoma; 49.6 µM and 8.61 µM and 53.8 µM in the assay on SF-539 CNS; > 100 µM and > 68.3 µM and 161 µM in the assay with SN12C renal. Moreover, the TGI was 95.9 µM and > 51.6 µM and 123 µM in the assay on SNB-75 CNS; 39.1 µM and 71.4 µM in the assay on SR leukemia; > 100 µM and 56.8 µM and 157 µM in the assay on SW-620 colon; > 100 µM and 22.2 µM and 46.2 µM with UACC-62 melanoma.

With `COC(=O)/C=C/c1cc(OC)c2c(c1)[C@@H](C(=O)OC)[C@H](c1ccc(OC)c(OC)c1)O2`, the GI50 is 4.89 µM in the assay on 786-0 renal; 1.06 µM in the assay with A498 renal; 4.45 µM in the assay with ACHN renal; 0.816 µM with M14 melanoma; 1.22 µM in the assay on SF-539 CNS; 6.44 µM with SN12C renal. For the same compound, the GI50 in the assay on SNB-75 CNS was 0.432 µM; in the assay with SR leukemia, 0.543 µM; in the assay with SW-620 colon, 0.561 µM; with UACC-62 melanoma, 0.972 µM. In addition, the TGI was above 100 µM in the assay on 786-0 renal; 33 µM in the assay on A498 renal; above 100 µM with ACHN renal; above 100 µM with M14 melanoma; above 100 µM with SF-539 CNS; above 100 µM with SN12C renal. Moreover, the TGI with SNB-75 CNS, in the assay on SR leukemia, with SW-620 colon and with UACC-62 melanoma was above 100 µM in each case.

`COc1ccc(-c2nn(C(=O)c3cc(OC)c(OC)c(OC)c3)c3cc(N)ccc23)cc1`: the GI50 was below 0.0191 µM with 786-0 renal; below 0.01 µM in the assay with A498 renal; below 0.0151 µM in the assay with ACHN renal; below 0.0118 µM in the assay on M14 melanoma; below 0.01 µM in the assay on SF-539 CNS; below 0.0162 µM in the assay with SN12C renal. Moreover, the GI50 was below 0.0122 µM with SNB-75 CNS, below 0.01 µM in the assay on SR leukemia, below 0.01 µM in the assay with SW-620 colon and below 0.01 µM in the assay on UACC-62 melanoma. Besides, the TGI in the assay on 786-0 renal is 3.63 µM; with A498 renal, below 0.0171 µM; in the assay on ACHN renal, 2.67 µM; with M14 melanoma, 19.5 µM; in the assay with SF-539 CNS it was 1.24 µM; in the assay on SN12C renal, 10.8 µM. Further, the TGI in the assay on SNB-75 CNS was 7.76 µM; with SW-620 colon it was 23.4 µM; with UACC-62 melanoma, 15.3 µM.

For the compound `OCC1C2C=CC(O2)[C@H]1CO` (stereo not given in full), the TGI in the assay on 786-0 renal, with A498 renal, in the assay on ACHN renal, with M14 melanoma, in the assay with SF-539 CNS and in the assay with SN12C renal was above 100 µM throughout. Besides, the TGI with SNB-75 CNS, in the assay with SR leukemia, with SW-620 colon and with UACC-62 melanoma was above 100 µM each time.

As for `CCCCCCOc1ccc(/C=N/Nc2cc(C)nc3ccc(Br)cc23)cc1`, the GI50 in the assay on 786-0 renal is 1.71 µM; in the assay on A498 renal, 1.58 µM; in the assay on ACHN renal, 1.74 µM; with M14 melanoma, 1.67 µM; in the assay on SF-539 CNS, 1.87 µM; in the assay on SN12C renal it was 1.69 µM. In addition, the GI50 in the assay with SNB-75 CNS is 1.84 µM; in the assay on SR leukemia, 0.396 µM; in the assay on SW-620 colon, 1.56 µM; in the assay with UACC-62 melanoma, 1.74 µM. In addition, the TGI worked out at 3.18 µM in the assay with 786-0 renal; 3.09 µM in the assay on A498 renal; 3.11 µM with ACHN renal; 3.08 µM in the assay with M14 melanoma; 3.29 µM in the assay on SF-539 CNS; 3.17 µM in the assay on SN12C renal. Besides, the TGI was 3.46 µM with SNB-75 CNS, 1.85 µM in the assay with SR leukemia, 3.56 µM in the assay with SW-620 colon and 3.24 µM with UACC-62 melanoma.

As to `c1ccc(Oc2cnc3ccccc3n2)cc1`, the GI50 was above 100 µM in the assay on 786-0 renal; 14.7 µM in the assay on A498 renal; above 100 µM with ACHN renal; above 100 µM with M14 melanoma; 92.3 µM with SF-539 CNS; above 100 µM in the assay with SN12C renal. Besides, the GI50 with SNB-75 CNS was 33.8 µM; in the assay on SR leukemia, 55.3 µM; in the assay on SW-620 colon, above 100 µM; in the assay with UACC-62 melanoma it was 85.3 µM. In addition, the TGI with 786-0 renal, in the assay on A498 renal, in the assay on ACHN renal, with M14 melanoma, with SF-539 CNS and in the assay with SN12C renal was above 100 µM in each case. In addition, the TGI in the assay on SNB-75 CNS, in the assay with SR leukemia, with SW-620 colon and with UACC-62 melanoma was above 100 µM throughout.

Consider `COC(=O)c1cccc(COc2ccc([N+](=O)[O-])cc2Cl)c1`, for which the TGI with 786-0 renal, in the assay with A498 renal, with ACHN renal, in the assay on M14 melanoma, in the assay on SF-539 CNS and in the assay on SN12C renal was above 100 µM in each case. For the same compound, the TGI in the assay on SNB-75 CNS, with SR leukemia, in the assay on SW-620 colon and in the assay on UACC-62 melanoma was above 100 µM in each case.

On to `COc1nc(C(Cl)(Cl)Cl)c(Cl)c(OC)c1Cl`, for which the GI50 in the assay on 786-0 renal was above 41.1 µM; in the assay with A498 renal, above 35.9 µM; in the assay on M14 melanoma, above 52 µM; in the assay with SF-539 CNS it was above 52 µM; in the assay on SR leukemia, above 45.5 µM; in the assay on SW-620 colon it was above 49.3 µM. In the assay with UACC-62 melanoma, the GI50 was above 50.4 µM. Further, the TGI in the assay on 786-0 renal was > 55.3 µM and 18.8 µM; with A498 renal, > 55.7 µM and 96.2 µM; in the assay on ACHN renal, > 54.1 µM and 73.5 µM; in the assay with M14 melanoma, > 83.7 µM and 74.5 µM; in the assay on SF-539 CNS, > 86.8 µM and 77.2 µM; in the assay with SN12C renal, > 52.9 µM and 74 µM. Further, the TGI was 55.6 µM in the assay on SNB-75 CNS; > 72.1 µM and 82.6 µM in the assay with SR leukemia; > 74.8 µM and 75 µM in the assay with SW-620 colon; > 88.8 µM and 54.5 µM with UACC-62 melanoma.

Consider `COc1ccc(/C=C\c2cc(OC)c(OC(C)=O)c(OC)c2)cc1`, for which the TGI in the assay on 786-0 renal was above 100 µM; in the assay on A498 renal, 45 µM; with ACHN renal, above 100 µM; in the assay with M14 melanoma, 92.2 µM; in the assay with SF-539 CNS, 14.9 µM; with SN12C renal, 30.8 µM. For the same compound, the TGI is 15 µM in the assay on SNB-75 CNS, 98.2 µM in the assay on SR leukemia, above 100 µM in the assay on SW-620 colon and 33.5 µM with UACC-62 melanoma.

The record behind these values is PubChem BioAssay (NCI).
